# Reference: publication PMC6050274, “Buparlisib is a brain penetrable pan-PI3K inhibitor” (Scientific Reports, 2018)
# Experiments:
# LLC-PK1 cells = assay: Conventional transport assay (CTA), diffusion over a cellular monolayer; assay type: in vitro ADME, porcine; details: zosuquidar present, both directions, 100 nM
# Text: We first sought to investigate whether buparlisib (Fig. 1A) is transported by P-gp or BCRP in vitro using concentration equilibrium transport assays (CETAs). CETAs are sensitive assays to determine translocation over a cellular monolayer and are frequently used to determine substrate affinity for ABC transporters by comparing cell lines that overexpress ABC transporters with their parental counterparts[24]–[26]. Since P-gp and BCRP are apically located transporters, a prerequisite for detecting substrate affinity for these transporters in a CETA is the capacity of a molecule to penetrate cell membranes. We therefore first confirmed that buparlisib could efficiently diffuse over a cellular monolayer using a conventional transwell set-up. […]
# (§1) Conventional bidirectional transport assays (CTAs) and concentration equilibrium transport assays (CETAs) were performed as described previously. […] Transwell leakiness was determined as Carboxyl-[^14C]-inulin translocation exceeding 1.5% per hour and these wells were excluded from the analysis.
# To prepare buparlisib transport assay samples for LC-MS/MS analysis, 10 μL medium samples were mixed with 30 μL of acetonitrile:formic acid (100:1 v/v). After centrifugation, the supernatant was 5-fold diluted in water and the buparlisib concentration was measured using an LC-MS/MS system as described below.
# [1] = biological target: T1, murine P-gp (Abcb1a/Mdr1a) (Mus musculus, UniProt P21447); assay: Concentration equilibrium transport assay (CETA), LLC-Mdr1a; assay type: in vitro ADME; details: 100 nM
# T1 construct: expressed in transfected cells; host or cells: LLC-PK1 (LLC-Mdr1a)
# Text: Figure 1 Analysis of buparlisib substrate affinity for ABC transporters using in vitro transport assays. (A) The chemical structure of buparlisib. (B) A conventional transport assay (CTA) using LLC-PK1 cells in presence of zosuquidar to block endogenous (porcine) P-gp activity. […] (C) Concentration equilibrium transport assays (CETAs) using MDCK or LLC cells that overexpress murine BCRP, (Bcrp1), human BCRP, murine P-gp (Mdr1a) or human P-gp (MDR1). […] The P-gp inhibitor zosuquidar was used in all MDCK cell lines to inhibit endogenous P-gp activity and in LLC cell lines to validate possible P-gp-mediated translocations. […]
# as §1, with “analysis. […]” for “analysis.”
# As described in detail before, CETA results were analysed with the General linear model repeated measures procedure of SPSS (v22; SPSS Inc, Chicago, IL)[25]. […] The standard error of the oral bioavailability was calculated using the formula below: SEF=F(SEAUCp.o./AUCp.o.)^2+(SEAUCi.v./AUCi.v.)^2 Buparlisib concentrations in WT and transporter knockout mice in vivo were compared using one-way analysis of variance followed by post hoc Bonferroni tests. […]
# PI3K = assay: Intracranial target inhibition, immunoblotting of brain lysates; assay type: in vivo, FVB mice
# Protocol: Figure 3 Buparlisib has excellent intracranial target engagement and oral bioavailability. (A) Buparlisib was orally administered to wildtype mice at a dose of 1 mg/kg, 2 mg/kg or 5 mg/kg. One hour after injection, blood and tissues were collected for LC-MS/MS analysis. Buparlisib plasma and brain levels increase dose-dependently, yielding similar and excellent brain-plasma ratios at all dose levels that were tested. (B) Immunoblotting of brain tissue lysates from (A). […] (C) Plasma-time curves of male and female wildtype mice following intravenous (2 mg/kg) or oral (5 mg/kg) administration. […] The oral bioavailability of buparlisib is excellent, since oral and intravenous administration yielded similar dose-adjusted AUCs (see Table 1). All data are represented as mean ± SD (n = 4).
# Next, we studied the intracranial pharmacodynamics of buparlisib in WT FVB mice as measured by target inhibition.
# Mouse brains were homogenized in RIPA buffer supplemented with sodium fluoride (2 mM), sodium orthovanadate (1 mM), sodium pyrophosphate (1 mM), β-glycerophosphate (2.5 mM), PMSF (1 mM), DTT (1 mM) and protein inhibitor cocktail (Roche; Basel, Switzerland). The primary antibodies that were used in this study are phospho-Akt^S473 (1:1000; D9E, #4060; Cell Signaling Technology; Danvers, MA), total Akt (1:1000; #9272; Cell Signaling Technology), phospho-Erk1^T202/204/Erk2^T183/Y185 (1:1000; sc-16982; Santa Cruz Biotechnology, Dallas, TX), total Erk1/2 (1:1000; C16, sc-93; Santa Cruz Biotechnology) and β–tubulin (1:1000; T3952; Sigma-Aldrich, St. Louis, MO). Goat-anti-rabbit-HRP (1:2000; DAKO, Santa Clara, CA) was used a secondary antibody.
# T1 sequence (P21447 whole entry): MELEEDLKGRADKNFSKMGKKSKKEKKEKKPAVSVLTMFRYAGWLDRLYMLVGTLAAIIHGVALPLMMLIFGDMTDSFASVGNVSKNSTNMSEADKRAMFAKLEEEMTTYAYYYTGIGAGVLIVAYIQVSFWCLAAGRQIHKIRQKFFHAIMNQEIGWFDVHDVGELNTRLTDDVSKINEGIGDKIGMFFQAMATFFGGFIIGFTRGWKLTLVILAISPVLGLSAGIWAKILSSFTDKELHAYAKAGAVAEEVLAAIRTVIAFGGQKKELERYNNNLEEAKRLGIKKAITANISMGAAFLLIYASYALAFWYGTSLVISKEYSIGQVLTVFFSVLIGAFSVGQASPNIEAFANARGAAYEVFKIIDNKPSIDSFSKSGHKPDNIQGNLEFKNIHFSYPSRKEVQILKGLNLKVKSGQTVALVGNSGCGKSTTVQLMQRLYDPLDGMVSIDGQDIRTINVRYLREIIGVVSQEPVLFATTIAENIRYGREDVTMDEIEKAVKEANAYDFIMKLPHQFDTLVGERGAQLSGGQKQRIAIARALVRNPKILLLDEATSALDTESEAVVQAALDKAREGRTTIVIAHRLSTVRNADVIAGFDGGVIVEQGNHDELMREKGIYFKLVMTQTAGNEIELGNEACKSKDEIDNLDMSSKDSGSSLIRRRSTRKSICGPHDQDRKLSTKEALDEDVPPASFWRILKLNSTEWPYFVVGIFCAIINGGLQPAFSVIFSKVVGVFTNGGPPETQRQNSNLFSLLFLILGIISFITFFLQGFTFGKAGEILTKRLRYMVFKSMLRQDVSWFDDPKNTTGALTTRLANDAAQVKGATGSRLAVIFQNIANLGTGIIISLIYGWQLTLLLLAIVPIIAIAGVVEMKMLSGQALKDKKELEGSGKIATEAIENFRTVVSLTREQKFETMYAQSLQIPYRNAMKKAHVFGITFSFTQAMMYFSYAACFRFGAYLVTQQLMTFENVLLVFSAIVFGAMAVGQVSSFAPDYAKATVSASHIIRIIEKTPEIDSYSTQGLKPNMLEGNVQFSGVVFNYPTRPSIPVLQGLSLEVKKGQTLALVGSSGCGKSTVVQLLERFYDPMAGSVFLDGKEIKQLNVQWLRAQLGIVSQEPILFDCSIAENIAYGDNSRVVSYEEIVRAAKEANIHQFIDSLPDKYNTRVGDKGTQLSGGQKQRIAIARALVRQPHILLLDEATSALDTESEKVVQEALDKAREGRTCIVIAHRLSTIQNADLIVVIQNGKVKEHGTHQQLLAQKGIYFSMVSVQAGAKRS
smiles,measurement,setting,value
Nc1cc(C(F)(F)F)c(-c2cc(N3CCOCC3)nc(N3CCOCC3)n2)cn1 [buparlisib],time to plateau to almost complete equilibrium between apical and basal compartments,LLC-PK1 cells,≤ 4 h
same,substrate of murine P-gp,[1],not a substrate
same,phosphorylation of Akt S473 in the brain,"PI3K; oral 5 mg/kg, wildtype mice",efficiently inhibited
same,phosphorylation of AKT in brain lysates,"PI3K; oral 1, 2, 5 mg/kg, WT FVB mice",dose-dependently decreased
same,signalling through ERK in brain lysates,"PI3K; oral, WT FVB mice",without affecting
